The values that follow come from patent US10500178B2, “LTB4 inhibition to prevent and treat human lymphedema” (The Board of Trustees of the Leland Stanford Junior …, priority 2015, dated 2019).

For assay [1], the system named is Notch signaling. The assay is described as follows: Notch signaling in mouse lymphedema (NICD, Hey1, EphrinB2). It counts as in vivo. The following applies: WT mice. The protocol: All small molecule drugs were administered through daily intraperitoneal injection.
Western Blot HLECs were lysed with RIPA buffer containing protease and phosphatase inhibitors. Lysates were sonicated briefly and centrifuged. The supernatant was collected and protein concentration was determined by BCA assay. 60 µg of protein were resolved on a 10% SDS-PAGE gel, transferred to a nitrocellulose membrane, blocked with 5% milk and probed with one of the following antibodies: anti-Sphk1 (3297,Cell Signaling); antip-Sphk1(SP1641, ECM Biosciences); anti-NICD (ab8925,Abcam), anti-VEGFR3 (AF743,R&D); anti-DLL4 (ab7280, Abcam). Actin was used to normalize the total protein. […] Images were acquired by Zeiss 710 confocal microscopy and analyzed using ImageJ software.
Quantitative RT-PCR. Quantitative PCR (qRT-PCR) was performed using FastStart SYBR Green (Roche) on a Lightcycler 480. mRNA expression relative to GAPDH mRNA levels were calculated using the delta-delta threshold cycle (ΔΔCT) method. […]

Assay [2] has as its system LEC Notch1−/− mice. Briefly: lymphedema surgery in LEC Notch1-/- mice. The format is in vivo, mouse. The source says:
To generate lymphatic endothelial specific tdTomato reporter mice (Prox1-Cre-ER-tdTomato), Prox1-Cre-ER mice were crossed with tdTomato mice. To create lymphatic endothelial cell specific Notch1 or S1pr1 conditional knockouts, Prox1-Cre-ER mice were crossed with Notch1loxp/loxp or S1pr1loxp/loxp mice. Mice with Prox1-Cre-ER and both target alleles floxed by Prox1-Cre-ER/Notch1^loxp/loxp or Prox1-Cre-ER/S1pr1^loxp/loxp were considered to be either lymphatic endothelial cell-specific Notch1 knockout (LEC Notch1−/−) or S1pr1 knockout (LEC S1pr1^−/−), respectively. Mice expressing Prox1-Cre-ER were used as WT controls. […] Cre-mediated gene knockout efficiency was evaluated by enumerating Notch1- or S1PR1-expressing lymphatic endothelial cells or by qRT-PCR measurements of Notch1 or S1pr1 transcripts in the lymphatic endothelial cells, sorted by flow cytometry. […]
Tail volume quantitation. Tail-volume measurements at each designated time were quantified by observers blinded to the treatment status of the subjects. Tail volumes were calculated through a digital photographic technique pre-operatively, and post-operatively (d3, d9, d14, d20, and d24), using an Olympus D520 Zoom digital camera at SHQ resolution at a fixed distance from the subject (37 cm), as previously described. […]

Turning to `CC(C)C[C@H](NC(=O)[C@@H](O)[C@H](N)Cc1ccccc1)C(=O)O` [bestatin, (2S)-2-[[(2S,3R)-3-amino-2-hydroxy-4-phenylbutanoyl]amino]-4-methylpentanoic acid], in assay [1], the “Hey1 and EphrinB2 expression in diseased lymphatics” value is given as “normalized”; the “NICD nuclear accumulation in mouse lymphedema” value is “restored”. Also, the “response of lymphedema to therapy” value in assay [2] is “refractory”. Besides, the “mural smooth muscle coverage around collecting lymphatics” value in assay [2] (as against WTs) was “not restituted”.
